Experimental findings from patent US8551999B2, “Heterocyclic compound and pharmaceutical composition thereof” (Otsuka Pharmaceutical Co., Ltd., priority 2007, dated 2013) are described below.

In general, melting point refers to the temperature, or range, at which the solid turns liquid.

The compound `CC(C)CCOc1ccc(CN2CCN(C(=O)c3cc4ccc(Oc5ccc(N(C)S(=O)(=O)c6ccc(Cl)c(Cl)c6)cn5)cc4n3C)CC2)cc1` [Example 516, 3,4-Dichloro-N-methyl-N-[6-(1-methyl-2-{4-[4-(3-methylbutoxy)-benzyl]piperazine-1-carbonyl}-1H-indol-6-yloxy)pyridin-3-yl]-benzenesulfonamide] came in with a melting point of 145.9 to 147.1 °C.

Compound `CC(C)Oc1ccc(CN2CCN(C(=O)c3cc4ccc(Oc5ccc(N(C)S(=O)(=O)c6ccc(Cl)c(Cl)c6)cn5)cc4n3C)CC2)cn1` [Example 517, 3,4-Dichloro-N-(6-{2-[4-(6-isopropoxypyridin-3-ylmethyl)-piperazine-1-carbonyl]-1-methyl-1H-indol-6-yloxy}pyridin-3-yl)-N-methylbenzenesulfonamide] came in with a melting point of 179.1 to 179.7 °C.

`Cc1ccc(S(=O)(=O)N(C)c2ccc(Oc3ccc4cc(C(=O)N5CCN(Cc6ccc(OC(CF)CF)cc6)CC5)n(C)c4c3)nc2)cc1` [Example 523, N-[6-(2-{4-[4-(2-Fluoro-1-fluoromethylethoxy)benzyl]piperazine-1-carbonyl}-1-methyl-1H-indol-6-yloxy)pyridin-3-yl]-4,N-dimethyl-benzenesulfonamide]: the melting point lay in the range of 116.5 to 116.6 °C.

`Cc1ccc(S(=O)(=O)N(C)c2ccc(Oc3ccc4cc(C(=O)N5CCN(Cc6ccc(OCC(F)F)cc6)CC5)n(C)c4c3)nc2)cc1` [Example 524, N-[6-(2-{4-[4-(2,2-Difluoroethoxy)benzyl]piperazine-1-carbonyl}-1-methyl-1H-indol-6-yloxy)pyridin-3-yl]-4,N-dimethylbenzene-sulfonamide] showed a melting point of 121.9 to 122.5 °C.

For the compound `CN(c1ccc(Oc2ccc3c(c2)cc(C(=O)N2CCN(Cc4ccc(OCC(F)(F)F)cc4)CC2)n3C)nc1)S(=O)(=O)c1ccc(C(F)(F)F)cc1` [Example 527, N-Methyl-N-[6-(1-methyl-2-{4-[4-(2,2,2-trifluoroethoxy)benzyl]-piperazine-1-carbonyl}-1H-indol-5-yloxy)pyridin-3-yl]-4-tri-fluoromethylbenzenesulfonamide], the melting point lay in the range of 191.8 to 194.4 °C.

`CN(c1ccc(Oc2ccc3c(c2)cc(C(=O)N2CCN(Cc4ccc(OCC(F)(F)F)cc4)CC2)n3C)nc1)S(=O)(=O)c1ccc(Cl)c(Cl)c1` [Example 528, 3,4-Dichloro-N-methyl-N-[6-(1-methyl-2-{4-[4-(2,2,2-trifluoro-ethoxy)benzyl]piperazine-1-carbonyl}-1H-indol-5-yloxy)pyridin-3-yl]benzenesulfonamide] returned a melting point of 174.8 to 175.8 °C.

With `Cc1ccc(S(=O)(=O)N(C)c2ccc(Oc3ccc4cc(C(=O)N5CCN(Cc6ccc(OCC7CC7)cc6)CC5)n(C)c4c3)nc2)cc1` [Example 530, N-(6-{2-[4-(4-Cyclopropylmethoxybenzyl)piperazine-1-carbonyl]-1-methyl-1H-indol-6-yloxy}pyridin-3-yl)-4,N-dimethylbenzene-sulfonamide], the melting point was 135.6 to 138.6 °C.

Compound `Cc1ccc(S(=O)(=O)N(C)c2ccc(Oc3ccc4cc(C(=O)N5CCN(Cc6ccc(OCCF)cc6)CC5)n(C)c4c3)nc2)cc1` [Example 531, N-[6-(2-{4-[4-(2-Fluoroethoxy)benzyl]piperazine-1-carbonyl}-1-methyl-1H-indol-6-yloxy)pyridin-3-yl]-4,N-dimethylbenzene-sulfonamide] registered a melting point of 138.7 to 139.8 °C.

With `Br.Cc1ccc(S(=O)(=O)N(C)c2ccc(Oc3ccc4cc(C(=O)N5CCN(Cc6ccc(OC(F)F)cc6)CC5)n(C)c4c3)nc2)cc1` [Example 532, N-(6-{2-[4-(4-Difluoromethoxybenzyl)piperazine-1-carbonyl]-1-methyl-1H-indol-6-yloxy}pyridin-3-yl)-4,N-dimethylbenzene-sulfonamide hydrobromide], the melting point is 214.5 to 218.5 °C (dec.).

As for `Br.Cc1ccc(S(=O)(=O)N(C)c2ccc(Oc3ccc4cc(C(=O)N5CCN(Cc6ccc(OCCC(C)C)cc6)CC5)n(C)c4c3)nc2)cc1` [Example 533, 4,N-Dimethyl-N-[6-(1-methyl-2-{4-[4-(3-methylbutoxy)benzyl]-piperazine-1-carbonyl}-1H-indol-6-yloxy)pyridin-3-yl]benzene-sulfonamide hydrobromide], the melting point was 236.5 to 238.3 °C (dec.).

For `Cc1ccc(S(=O)(=O)N(C)c2ccc(Oc3ccc4cc(C(=O)N5CCN(Cc6ccc(OC(C)C)nc6)CC5)n(C)c4c3)nc2)cc1` [Example 534, N-(6-{2-[4-(6-Isopropoxypyridin-3-ylmethyl)piperazine-1-carbonyl]-1-methyl-1H-indol-6-yloxy}pyridin-3-yl)-4,N-dimethyl-benzenesulfonamide], the melting point is 131.1 to 132.8 °C.

The compound `Br.Cn1c(C(=O)N2CCN(Cc3ccc(OC(CF)CF)cc3)CC2)cc2ccc(Oc3ccc(NC(=O)c4ccc(C(F)(F)F)cc4Cl)cn3)cc21` [Example 537, 2-Chloro-N-[6-(2-{4-[4-(2-fluoro-1-fluoromethylethoxy)benzyl]-piperazine-1-carbonyl}-1-methyl-1H-indol-6-yloxy)pyridin-3-yl]-4-trifluoromethylbenzamide hydrobromide] had a melting point of 239.8 to 240.8 °C.

Take `Br.Br.CN(C(=O)c1ccc(C(F)(F)F)cc1)c1ccc(Oc2ccc3c(c2)cc(C(=O)N2CCN(Cc4ccncc4)CC2)n3C)nc1` [Example 548, N-Methyl-N-{6-[1-methyl-2-(4-pyridin-4-ylmethylpiperazine-1-carbonyl)-1H-indol-5-yloxy]pyridin-3-yl}-4-trifluoromethyl-benzamide dihydrobromide]: the melting point is 196 to 198 °C.

`Br.CN(C(=O)c1ccc(C(F)(F)F)cc1)c1ccc(Oc2ccc3c(c2)cc(C(=O)N2CCN(Cc4ccc(F)cc4)CC2)n3C)nc1` [Example 549, N-(6-{2-[4-(4-Fluorobenzyl)piperazine-1-carbonyl]-1-methyl-1H-indol-5-yloxy}pyridin-3-yl)-N-methyl-4-trifluoromethylbenzamide hydrobromide] showed a melting point of 218 to 220 °C.

`Br.Br.Cn1c(C(=O)N2CCN(Cc3ccncc3)CC2)cc2cc(Oc3ccc(NC(=O)c4ccc(C(F)(F)F)cc4)cn3)ccc21` [Example 550, N-{6-[1-Methyl-2-(4-pyridin-4-ylmethylpiperazine-1-carbonyl)-1H-indol-5-yloxy]pyridin-3-yl}-4-trifluoromethylbenzamide dihydrobromide]: the melting point was 211 to 215 °C (dec.).

In the case of `Br.Cn1c(C(=O)N2CCN(Cc3ccc(F)cc3)CC2)cc2cc(Oc3ccc(NC(=O)c4ccc(C(F)(F)F)cc4)cn3)ccc21` [Example 551, N-(6-{2-[4-(4-Fluorobenzyl)piperazine-1-carbonyl]-1-methyl-1H-indol-5-yloxy}pyridin-3-yl)-4-trifluoromethylbenzamide hydrobromide], the melting point lay in the range of 254 to 257 °C.

In the case of `Cn1c(C(=O)N2CCN(Cc3ccc(C#N)cc3)CC2)cc2cc(Oc3ccc(NC(=O)c4ccc(C(F)(F)F)cc4)cn3)ccc21.O=C(O)/C=C\C(=O)O` [Example 552, N-(6-{2-[4-(4-Cyanobenzyl)piperazine-1-carbonyl]-1-methyl-1H-indol-5-yloxy}pyridin-3-yl)-4-trifluoromethylbenzamide maleate], the melting point is 149 to 152 °C.

Consider `Br.CN(C(=O)c1ccc(C(F)(F)F)cc1)c1ccc(Oc2ccc3c(c2)cc(C(=O)N2CCN(Cc4ccc(C(F)(F)F)cc4)CC2)n3C)nc1` [Example 553, N-Methyl-N-(6-{1-methyl-2-[4-(4-trifluoromethylbenzyl)piperazine-1-carbonyl]-1H-indol-5-yloxy}pyridin-3-yl)-4-trifluoromethyl-benzamide hydrobromide], for which the melting point was 254 to 260 °C (dec.).

With `Br.Br.CN(C(=O)c1ccc(Cl)c(Cl)c1)c1ccc(Oc2ccc3c(c2)cc(C(=O)N2CCN(Cc4ccncc4)CC2)n3C)nc1` [Example 554, 3,4-Dichloro-N-methyl-N-{6-[1-methyl-2-(4-pyridin-4-ylmethyl-piperazine-1-carbonyl)-1H-indol-5-yloxy]pyridin-3-yl}benzamide dihydrobromide], the melting point was 204 to 208 °C (dec.).

Regarding `Br.Br.Cn1c(C(=O)N2CCN(Cc3ccncc3)CC2)cc2cc(Oc3ccc(NC(=O)c4ccc(Cl)c(Cl)c4)cn3)ccc21` [Example 555, 3,4-Dichloro-N-{6-[1-methyl-2-(4-pyridin-4-ylmethylpiperazine-1-carbonyl)-1H-indol-5-yloxy]pyridin-3-yl}benzamide dihydrobromide], the melting point is 214 to 219 °C (dec.).

As to `Br.Cn1c(C(=O)N2CCN(Cc3ccc(C#N)cc3)CC2)cc2cc(Oc3ccc(NC(=O)c4ccc(Cl)c(Cl)c4)cn3)ccc21` [Example 556, 3,4-Dichloro-N-(6-{2-[4-(4-cyanobenzyl)piperazine-1-carbonyl]-1-methyl-1H-indol-5-yloxy}pyridin-3-yl)benzamide hydrobromide], the melting point was 267 to 272 °C (dec.).

As for `Br.Br.Cn1c(C(=O)N2CCN(Cc3cccnc3)CC2)cc2cc(Oc3ccc(NC(=O)c4ccc(C(F)(F)F)cc4)cn3)ccc21` [Example 558, N-{6-[1-Methyl-2-(4-pyridin-3-ylmethylpiperazine-1-carbonyl)-1H-indol-5-yloxy]pyridin-3-yl}-4-trifluoromethylbenzamide dihydrobromide], the melting point fell in the range of 201 to 204 °C.

`Br.Br.CN(C(=O)c1ccc(C(F)(F)F)cc1)c1ccc(Oc2ccc3c(c2)cc(C(=O)N2CCN(Cc4cccnc4)CC2)n3C)nc1` [Example 559, N-Methyl-N-{6-[1-methyl-2-(4-pyridin-3-ylmethylpiperazine-1-carbonyl)-1H-indol-5-yloxy]pyridin-3-yl}-4-trifluoromethyl-benzamide dihydrobromide] returned a melting point of 191 to 193 °C.

As to `CS(=O)(=O)O.CS(=O)(=O)O.Cn1c(C(=O)N2CCN(Cc3ccccn3)CC2)cc2cc(Oc3ccc(NC(=O)c4ccc(C(F)(F)F)cc4)cn3)ccc21` [Example 560, N-{6-[1-Methyl-2-(4-pyridin-2-ylmethylpiperazine-1-carbonyl)-1H-indol-5-yloxy]pyridin-3-yl}-4-trifluoromethylbenzamide bismethanesulfonate], the melting point lay in the range of 137 to 139 °C.
